Results: PMC8466554, “Heteroaryl-Ethylenes as New Lead Compounds in the Fight against High Priority Bacterial Strains” (Antibiotics, 2021)
Several values for one entry are separate records, joined by “and”; a condition that tells them apart may be missing. Identical values can stand only once. Like-named read-outs stand apart in the source and are kept apart here. Each block holds one compound with its values, some of them ahead of it.

Assays:
[1] = tested on: P. aeruginosa ATCC27853; experiment: MIC microtiter plate assay; assay type: cell-based, Pseudomonas aeruginosa
[2] = tested on: E. faecalis ATCC29212-VSE; experiment: MIC and MBC microtiter plate assay; assay type: cell-based
[3] = tested on: E. coli ATCC25922; experiment: MIC and MBC microtiter plate assay, also with different inocula; assay type: cell-based, Escherichia coli
[4] = tested on: E. faecalis ATCC51299-VRE; experiment: as above; assay type: cell-based
[5] = tested on: CaCo-2 cells; experiment: MTT cytotoxicity assay; assay type: cell-based, human; details: 24 h of incubation relative to untreated controls
Protocol: To evaluate the biological activity of the PBn series, compounds were screened for toxicity against the colon-rectal cancer cell line CaCo-2 (ATCC HTB-37). These human cancer cells were treated with solutions of the compounds at decreasing concentrations, starting from 100 μM up to 0.01 μM. The reference compound used for these assays was 5-Fluorouracil (5-Fu), a pyrimidine analogue belonging to the family of antimetabolite. […] Briefly, human colorectal adenocarcinoma cells (CaCo-2 HTB-37^TM Colorectal Adenocarcinoma Human, American Type Culture Collection, Manassas, VA, USA) were grown in Dulbecco’s MEM (DMEM) with 10% heat-inactivated fetal bovine serum, 2 mM L-Alanyl-L-Glutamine, penicillin-streptomycin (50 units-50 μg for mL) and incubated at 37 °C in a humidified atmosphere of 5% CO2, 95% air. CaCo-2 cells were plated in 96 well pates and incubated at 37 °C. The PBn series compounds and 5-FU were prepared as a 1 mM solution in 10 mL with 0.01% DMSO. Then, 24 h after plating, cells were treated with 20 μL of each solution. Untreated cells were used as controls. […] The results were read on a multiwell scanning spectrophotometer (AF2200 plate reader, Eppendorf, Milan, Italy), using a wavelength of 569 nm.

[6] = tested on: S.aureus USA300-CAMRSA; experiment: MIC and MBC microtiter plate assay; assay type: cell-based, Staphylococcus aureus
[7] = tested on: S.aureus Mu50-VISA; experiment: MIC and MBC microtiter plate assay; assay type: cell-based, Staphylococcus aureus
[8] = tested on: Gram-positive control strains; experiment: MIC and MBC, summary over Gram-positive control strains; assay type: cell-based, S. aureus and Enterococcus spp.; details: over the Gram-positive control strains (S. aureus and Enterococcus spp.)
[9] = tested on: S.aureus ATCC29213-MSSA; experiment: MIC and MBC microtiter plate assay; assay type: cell-based, Staphylococcus aureus
[10] = tested on: K. pneumoniae ATCC BAA-2814; experiment: MIC microtiter plate assay; assay type: cell-based, Klebsiella pneumoniae; details: K. pneumoniae ATCC BAA-2814 (MDR strain)
[11] = tested on: S.aureus ATCC12598-MSSA; experiment: MIC and MBC microtiter plate assay, also with different inocula; assay type: cell-based, Staphylococcus aureus
[12] = tested on: A. baumannii ATCC17978; experiment: as above; assay type: cell-based, Acinetobacter baumannii; details: A. baumannii ATCC17978
[13] = tested on: K. pneumoniae ATCC700603; experiment: MIC microtiter plate assay; assay type: cell-based, Klebsiella pneumoniae
[14] = E. faecalis ATCC51299-VRE, value in brackets
[15] = S.aureus ATCC12598-MSSA, value in brackets

MIC [1]: > 128 µg/mL | MIC ([1]; value in brackets): > 276.02 µM | MIC [2]: 8 µg/mL | MIC ([2]; value in brackets): 17.25 µM | MIC [3]: 32 µg/mL | MIC ([3]; value in brackets): 69.00 µM | MIC ([4]; E. faecalis ATCC51299-VRE): 8 mg/L | MIC [4, 14]: 17.25 µM | MIC ([4]; E. faecalis ATCC51299, inoculum 1.00101 (1 × 10^1 CFU/mL)): 8 mg/L and 17.25 μM | MIC ([4]; E. faecalis ATCC51299, inoculum 1.00102 (1 × 10^2 CFU/mL)): 8 mg/L and 17.25 μM | MIC ([4]; E. faecalis ATCC51299, inoculum 1.00103 (1 × 10^3 CFU/mL)): 8 mg/L and 17.25 μM | MIC ([4]; E. faecalis ATCC51299, inoculum 1.00104 (1 × 10^4 CFU/mL)): 8 mg/L and 17.25 μM | MIC ([4]; E. faecalis ATCC51299, inoculum 1.00105 (1 × 10^5 CFU/mL, standard)): 8 mg/L and 17.25 μM | MIC ([4]; E. faecalis ATCC51299, inoculum 1.00106 (1 × 10^6 CFU/mL)): 16 mg/L and 34.50 μM | MIC ([4]; E. faecalis ATCC51299, inoculum 1.00107 (1 × 10^7 CFU/mL)): 32 mg/L and 69.00 μM | MIC [6]: 2 µg/mL | MIC ([6]; value in brackets): 4.31 µM | MIC [7]: 16 µg/mL | MIC ([7]; value in brackets): 34.50 µM | MIC [8]: ≤ 16 µg/mL | MIC [9]: 4 µg/mL | MIC ([9]; value in brackets): 8.63 µM | MIC [10]: 64 µg/mL | MIC ([10]; value in brackets): 138.01 µM | MIC ([11]; S. aureus ATCC12598, inoculum 1.00101 (1 × 10^1 CFU/mL)): 2 mg/L and 4.31 μM | MIC ([11]; S. aureus ATCC12598, inoculum 1.00102 (1 × 10^2 CFU/mL)): 4 mg/L and 8.63 μM | MIC ([11]; S. aureus ATCC12598, inoculum 1.00103 (1 × 10^3 CFU/mL)): 8.63 μM and 4 mg/L | MIC ([11]; S. aureus ATCC12598, inoculum 1.00104 (1 × 10^4 CFU/mL)): 4 mg/L and 8.63 μM | MIC ([11]; S. aureus ATCC12598, inoculum 1.00105 (1 × 10^5 CFU/mL, standard)): 8 mg/L and 17.25 μM | MIC ([11]; S. aureus ATCC12598, inoculum 1.00106 (1 × 10^6 CFU/mL)): 8 mg/L and 17.25 μM | MIC ([11]; S. aureus ATCC12598, inoculum 1.00107 (1 × 10^7 CFU/mL)): 32 mg/L and 69.00 μM | MIC ([11]; S.aureus ATCC12598-MSSA): 8 mg/L | MIC [11, 15]: 17.25 µM | MIC [12]: 32 µg/mL | MIC ([12]; value in brackets): 69.00 µM | MIC [13]: 128 µg/mL | MIC ([13]; value in brackets): 276.02 µM
SMILES: CC[n+]1ccc2c(c1)CCCC2=Cc1ccc(-c2ccc(Cl)cc2)o1.[I-] [PB7]
MBC [2]: 128 µg/mL | MBC ([2]; value in brackets): 276.02 µM | MBC ([4]; E. faecalis ATCC51299-VRE): 128 µg/mL | MBC [4, 14]: 276.02 µM | IC50 [5]: 1360 nM | MBC [6]: 32 µg/mL | MBC ([6]; value in brackets): 69.00 µM | MBC [7]: 16 µg/mL | MBC ([7]; value in brackets): 34.50 µM | MBC [9]: 4 µg/mL | MBC ([9]; value in brackets): 8.63 µM | MBC ([11]; S.aureus ATCC12598-MSSA): 8 µg/mL | MBC [11, 15]: 17.25 µM

MIC [1]: > 128 µg/mL | MIC ([1]; value in brackets): > 307.47 µM | MIC [2]: 32 µg/mL | MIC ([2]; value in brackets): 76.87 µM | MIC [3]: 16 µg/mL | MIC ([3]; value in brackets): 38.43 µM | MIC ([4]; E. faecalis ATCC51299-VRE): 32 mg/L | MIC [4, 14]: 76.87 µM | MIC [6]: 2 µg/mL | MIC ([6]; value in brackets): 4.80 µM | MIC [7]: 32 µg/mL | MIC ([7]; value in brackets): 76.87 µM | MIC [9]: 4 µg/mL | MIC ([9]; value in brackets): 9.61 µM | MIC [10]: > 128 µg/mL | MIC ([10]; value in brackets): > 307.47 µM | MIC ([11]; S.aureus ATCC12598-MSSA): 2 mg/L | MIC [11, 15]: 4.80 µM | MIC [12]: 128 µg/mL | MIC ([12]; value in brackets): 307.47 µM | MIC [13]: > 128 µg/mL | MIC ([13]; value in brackets): > 307.47 µM
SMILES: CN(C)c1ccc(/C=C/c2ccc3ccccc3[n+]2C)cc1.[I-] [PB1]
IC50 [5]: 1200 nM

SMILES: O=c1[nH]cc(F)c(=O)[nH]1 [5-FU, 5-Fluorouracil, reference compound]
IC50 [5]: 27400 nM | IC50 ([5]; Homo sapiens, Caco-2, 24 h): 27400 nM
